According to US11285136B2, “Nanoparticles for controlled release of Sorafenib and Sorafenib derivatives” (DISTRETTO TECNOLOGICO SICILIA MICRO NANO SISTEMI S.C.A.R.L., priority 2017, dated 2022):
Entries after “also recorded” stand apart in the source; their conditions may differ.

Tests used:
[1] = test system: HepG2; assay: Cell viability assay (CellTiter) on HepG2 cells; assay type: cell-based, human
Protocol: (§1) The human hepatocellular carcinoma cell lines, HepG2 and Hep3B, were obtained from the American Type Culture Collection (ATCC). Cells were kept in 5% CO2 and grown in Roswell Park Memorial Institute (RPMI) medium (SIGMA, Milan, Italy), supplemented with 10% (v/v) fetal bovine serum (FBS) (Gibco, Life Technologies, Monza MB, Italy), 2 mM L-glutamine, 100 U/ml of penicillin-streptomycin and 1 mM of sodium pyruvate (SIGMA, Milan, Italy). Cell lines were regularly checked for possible mycoplasma contamination.
(§2) The latter were resuspended in sterile conditions in sterile H2O, sonicated for 20 min in a water sonicator, and diluted with a complete RPMI volume (2×). At the end of the treatment, cell viability assays were performed using the OneSolution aqueous CellTiter kit (Promega Corporation, Madison, Wis., USA). The percentage of cell viability was calculated with reference to the absorbance measured in the control cells. The experiments were performed in triplicate and the values expressed as mean±SD of three independent experiments.

[2] = test system: Hep3B; assay: Cell viability assay (CellTiter) on Hep3B cells; assay type: cell-based, human; details: 72 hours
Protocol: as §1, §2

[3] = Biodistribution of Sorafenib in tissues of treated mice; details: compared with Sorafenib PBB, p<0.01, FIG. 6
Protocol: The lyophilized nanoparticle samples were resuspended and sonicated as reported in cell viability assays. Tumor volumes and body weight were recorded twice a week as previously described (Cusimano et al., Cytotoxic activity of the novel small molecule AKT inhibitor SC66 in hepatocellular carcinoma cells. Oncotarget 2015, 6, 1707-1722). The mice were sacrificed by cervical dislocation when the tumor mass exceeded 10% of the body weight of the animals, or when the tumor mass appeared ulcerated or other morbid conditions were found, in accordance with the institutional guidelines and in accordance with the national law (Legislative Decree No. 26 4-3-2014) and international laws and policies (ECC Council Directive 86/609, OJ L358.1, Dec. 12, 1987). […] At the end of the trial, tumors, liver, kidneys, lungs and spleen were collected from each animal. Half of each tumor, or organ, was frozen in liquid nitrogen and stored at −80° C. for biodistribution analyzes, while the other half was fixated in formalin and used for immunohistochemistry analysis.
Sorafenib was extracted from the tissues of the treated animals following the procedure described in Craparo E F et al. Galactosylated polymeric carriers for liver targeting of Sorafenib. […]

[4] = cited from earlier work
[5] = test system: Hep3B hepatocellular carcinoma; assay: Hep3B xenograft in nude mice, therapeutic efficacy; assay type: in vivo; details: 10 mg/kg daily (6 days/week), 17 days, FIG. 5A
Protocol: (§3) Male nude mice (fox1 nu/nu) of 4 weeks of life were purchased at Envigo (Udine, Italy) and left to acclimatize for 1 week. Hep3B cells (10×10^6 in 0.2 ml PBS), undergoing logarithmic growth, were inoculated in the right flank of the animals. When the tumors were palpable (about 300 mm^3), the mice were randomly divided into four groups of five animals each, with the various tumor volumes equally distributed between the four groups. Each group was treated for 17 days as indicated below.
Group 1: daily treatment (6 days/week) by intraperitoneal (IP) injection with 10 mg/kg of Sorafenib tosylate resuspended in DMSO and further diluted in a 25% solution of ethanol (DMSO-EtOH).
Group 2: carrier only (DMSO-EtOH).
Group 4: daily treatment (6 days/week) with 10 mg/kg of empty PBB nanoparticles resuspended in RPMI.
To quantify the Ki-67 cell proliferation marker expression, the ImmunoRatio® software (http://jvsmicroscope.uta.fi/immunoratio/) was used which, using a color deconvolution algorithm, calculates the percentage of positively marked area (area stained with diaminobenzidine) towards the total nuclear area. The hematoxylin stains were also acquired to analyze the neo-vascularization of the tumor, using the Leica DMR microscope equipped with a Leica DFC 320 digital camera.

[6] = oral tablets, strong first-pass effect; cited from earlier work
[7] = In vitro release of Sorafenib, dialysis tube method; assay type: physicochemical; details: SGF, SIF and PBS, 37° C.
Protocol: During the experiment, the temperature was maintained at 37° C. in a thermostatic stirrer and with stirring of 100 rpm. At scheduled time intervals, 1 ml aliquots were taken from the external medium and replaced with an equal volume of fresh receiving medium. The released Sorafenib was quantified by HPLC analysis. Each in vitro release experiment was repeated in triplicate.
A control experiment was also carried out to determine the dissolution of the free drug: an appropriate amount of Sorafenib was dispersed in the receiving medium, in order to have a final concentration of Sorafenib equal to that present in the nanoparticles, the dispersion was then introduced into a dialysis tube (cut-off 12000-14000 Da) which was immersed in a container containing the receiving medium. The amount of Sorafenib in the receiving medium was detected by HPLC analysis.
The amount of released Sorafenib was expressed as a percentage ratio between the released drug weight and the total amount of Sorafenib loaded into the nanoparticles. […] The cumulative release of Sorafenib in 24 hours was about 63% in SIF (panel B) and about 55% in PBS (panel C).

[8] = Body weight and mobility of treated xenograft mice; assay type: in vivo, nude mice; details: 10 mg/kg daily (6 days/week), 17 days, FIG. 5B
Protocol: as §3

In the case of `CNC(=O)c1cc(Oc2ccc(NC(=O)Nc3ccc(Cl)c(C(F)(F)F)c3)cc2)ccn1` [Sorafenib, 4-[4-[[4-chloro-3-(trifluoromethyl)phenyl]carbamoylamino]phenoxy]-N-methyl-pyridine-2-carboxamide], the cell viability ([1]; HepG2, 0.6-10 μM, 72 hours, FIG. 3) is reported as “strongly decreased in a dose-dependent manner”, the IC50 ([1]; Homo sapiens, HepG2, 72 hours, mean ± DS) is reported as 5.5 ± 1 µM and the cell viability ([2]; 0.6-10 μM, FIG. 3) is reported as “strongly decreased in a dose-dependent manner”. For the same molecule, the IC50 ([2]; Homo sapiens, mean ± DS) was 3.5 ± 0.5 µM, the “amount of Sorafenib detected in the lungs” value [3] was “significantly higher” and the solubility in water [4] was “slightly soluble; also recorded: poorly soluble”. For the same molecule, the tumor growth [5] was “reduced tumor growth compared to the carrier alone, although this difference was not significant”, the bioavailability [6] was “low” and the “dissolution of free drug” value [7] was “almost complete within two hours”. The body weight [8] was “did not show a significant loss of body weight”.
